Laboratory results taken from US5457101A (priority 1994, dated 1995).

What was measured:
[1] = system: cloned human 5-HT2B receptor; assay: [3H]5-HT radioligand binding, cloned human 5-HT2B receptor; conditions: statement in words only, no value given
[2] = studies using radiolabelled compound, residues in saliva; format: in vivo
Procedure: For example, in the treatment of adult humans, dosages of from 0.25 to 30 mg, preferably from 1 to 20 mg, per day may be used. A once a day dosage is normally sufficient, although divided doses may be administered. For treatment of gastrointestinal disorders, a dose range of from 1 to 20 mg, preferably 2.5 to 15 mg per day is suitable.

Cc1cc2c(s1)Nc1ccccc1N=C2N1CCN(C)CC1 [2-methyl-4-(4-methyl-1-piperazinyl)-10H-thieno-[2,3-b][1,5]benzodiazepine]
5-HT2B receptor activity [1]: 5-HT2B receptor activity
residues of radiolabelled compound in saliva [2]: detected in the saliva
